Laboratory results taken from article PMC9243654 (Frontiers in Nutrition, 2022).
Where two headings read alike, the source gives them in different places.

Legend:
in vitro = assay: in vitro
Method: The PAMPA-BBB assay was conducted according to the methodology followed by Di et al., with some modifications as described below ([15]). First, the BBB solution was prepared by dissolving 8 mg of PBL and 4 mg of cholesterol in 600 μl of n-dodecane. The initial donor solution was prepared by mixing 1 ml of extract (10 mg ml^−1 in EtOH) with 1 ml of buffer (PBS, pH = 7.4, 10 mM). The filter membrane of the donor plate was carefully coated with 5 μl of BBB solution. The acceptor plate was filled with 350 μl of buffer, and the donor plate was carefully assembled over the acceptor plate like a “sandwich.” Finally, the donor plate was filled with 350 μl of donor solution, covered, and incubated for 4 h at 37°C in the dark. After incubation time, 300 μl of the solution was taken from both plates, transferred to separate vials, and dried in the SpeedVac system at 40°C and 13 mbar pressure. Dried acceptor and donor solution were dissolved in 50 μl of pure EtOH before subjecting to UHPLC-Q-TOF-MS analysis. Permeability across in vitro BBB of the bioactive compound was measured according to Equation (1) ([25]), with some modifications in concentration rates.
(1) Pe=-ln[1-CA(t)/Ce]/A^*(1/VD+1/VA)^*t
Cequilibrium was calculated according to the following equation ([2]):
(2) Cequilibrium=[CD(t)*VD+CA(t)*VA]/(VD+VA)

[1] = ref PubChem database, cited from earlier work
[2] = compounds of RSFE extract, octanol-water partition coefficient
[3] = PAMPA, pH 7.4, PAMPA-BBB log Pe (cm s−1), compound within T33 extract, 4 h, 37°C, PBS pH 7.4
[4] = compounds identified in LPLE extract
[5] = compound within RSFE extract, 4 h, 37°C, PBS pH 7.4
[6] = PAMPA, pH 7.4, PAMPA-BBB log Pe (cm s−1)
[7] = PAMPA, pH 7.4, PAMPA-BBB log Pe, compound within LPLE (Nothofagus pumilio, lenga PLE extract), N.D = not detected in acceptor

CC(C)C1=Cc2ccc3c(c2C(=O)C1=O)CCCC3(C)C [Rosmariquinone]
Cross BBB potential (in vitro; PAMPA): ++ | PAMPA-BBB log Pe (cm s−1) (in vitro; PAMPA, 4 h, pH 7.4): −5.00 cm s−1 | Log P [1, 2]: 4.9

Kalandaigremoside F
Cross BBB potential (in vitro; compound within KD extract): - | Log P ([1]; compounds of KD extract): 7.2

O=c1c(O[C@@H]2O[C@H](CO)[C@@H](O)[C@H](O)[C@H]2O)c(-c2ccc(O)cc2)oc2cc(O)cc(O)c12 [Kaempferol 3-O-β-D-glucoside]
Cross BBB potential (in vitro; compound within KD extract): - | Log P ([1]; compounds of KD extract): 2.37

O=C(O)[C@]1(O)C[C@@H](O)[C@@H](O)[C@H](O)C1 [Quinic acid]
Cross BBB potential (in vitro; PAMPA): - | Papp at 4 h (in vitro; PAMPA, pH 7.4, PAMPA-BBB log Pe (cm s−1), compound within RSFE extract, 4 h, 37°C, PBS pH 7.4): 60.3 nm/s | Papp at 4 h (in vitro; [3]): 36.3 nm/s | Log P ([1]; compounds of T33 extract): −2.4

C=C(C)[C@@H]1CC[C@]2(C(=O)O)CC[C@]3(C)[C@H](CC[C@@H]4[C@@]5(C)CC[C@H](O)[C@@](C)(CO)[C@@H]5CC[C@]43C)[C@@H]12 [Anemosapogenin]
Cross BBB potential (in vitro; PAMPA): ++ (key: -: not detected in acceptor; +: log Pe > −6.5; ++: log Pe > −5.5; +++: log Pe > −4.5) | PAMPA-BBB log Pe (cm s−1) (in vitro; PAMPA, pH 7.4): −5.26 cm s−1 | Log P [1, 2]: 7.5

COc1cc(/C=C/C(=O)O)cc(OC)c1O [Sinapic acid]
Cross BBB potential (in vitro; compound within ASFE extract): - | Cross BBB potential (in vitro; compound within KD extract): - | Cross BBB potential (in vitro; compound within T33 extract): - | Log P [1, 4]: 1.5 | Log P ([1]; compounds of ASFE extract): 1.5 | Log P ([1]; compounds of KD extract): 1.5 | Log P ([1]; compounds of T33 extract): 1.5

Oc1ccc(/C=C/c2cc(O)cc(O)c2)cc1 [Trans-resveratrol]
Cross BBB potential (in vitro; PAMPA): - | Log P [1, 4]: 2.5 | Log P ([1]; compounds of ASFE extract): 2.5

O=C(O)/C=C/c1ccc(O)c(O)c1 [Caffeic acid]
Cross BBB potential (in vitro; PAMPA): -

CC(=O)OC(C)(C)[C@@H]1CC[C@@]2(C)CO[C@]3(C)C=CO[C@]23C1 [Phytuberin]
Cross BBB potential (in vitro; PAMPA): ++ | PAMPA-BBB log Pe (cm s−1) (in vitro; PAMPA, 4 h, pH 7.4): −4.51 cm s−1 | Log P ([1]; compounds of T33 extract): 2.3

CC(=O)O[C@@H]1C[C@H](O)C[C@@]2(O)CC[C@@H]3[C@@H]4[C@@H](C[C@]5(C)[C@@H](c6ccc(=O)oc6)CC[C@]35O)O[C@H](O)[C@]412 [Bryophyllin B]
Cross BBB potential (in vitro; compound within KD extract): - | Log P ([1]; compounds of KD extract): 0.6

Desdimethyl-octahydro-iso- cohumulone
Cross BBB potential (in vitro; compound within RSFE extract): +++ (log Pe > −4.5) | PAMPA-BBB log Pe (cm s−1) (in vitro; [5]): −4.30 cm s−1 | Log P [1, 2]: 3.8

COc1cc(C=O)ccc1O [Vanillin]
Papp at 4 h (in vitro; [6]): 708 nm/s | Papp at 4 h (in vitro; [7]): 331 nm/s

O=C(/C=C/c1ccc(O)cc1)O[C@@H](C(=O)O)[C@@H](O)C(=O)O [Coutaric acid]
Cross BBB potential (in vitro; compound within ASFE extract): - | Cross BBB potential (in vitro; compound within LPLE (Nothofagus pumilio, lenga PLE extract), classes based on Könczöl et al.): - | Log P [1, 4]: 0.4 | Log P ([1]; compounds of ASFE extract): 0.4

COc1cc2oc(-c3ccc(O)cc3)cc(=O)c2c(O)c1OC [Crisimaritin]
Cross BBB potential (in vitro; PAMPA): +++ | PAMPA-BBB log Pe (cm s−1) (in vitro; PAMPA, 4 h, pH 7.4): −4.36 cm s−1 | Log P [1, 2]: 2.0

COc1cc(C=O)cc(OC)c1O [Syringaldehyde]
Papp (in vitro; [7]): 135 nm/s | Log P [1, 4]: 0.1 | Log P ([1]; compounds of T33 extract): 1.1

CC/C=C/CC(O)C(O)/C=C/C(O)CCCCCCCC(=O)O (stereo not drawn)
Cross BBB potential (in vitro; PAMPA): +++ | PAMPA-BBB log Pe (cm s−1) (in vitro; PAMPA, 4 h, pH 7.4): −3.73 cm s−1 | Log P [1, 2]: 2.6

Oc1cc(O)c2c(c1)O[C@H](c1ccc(O)c(O)c1)[C@H](O)[C@H]2c1c(O)cc(O)c2c1O[C@H](c1ccc(O)c(O)c1)[C@H](O)C2 [Procyanidin B2]
Cross BBB potential (in vitro; PAMPA): -

C[C@@H]1O[C@@H](Oc2c(-c3ccc(O)cc3)oc3cc(O)cc(O)c3c2=O)[C@H](O)[C@H](O)[C@H]1O [Afzelin]
Cross BBB potential (in vitro; PAMPA): -

O=C(O)c1cc(O)c(O)c(O)c1 [Gallic acid]
Papp at 4 h (in vitro; [7]): 692 nm/s

O=C(/C=C/c1ccc(O)c(O)c1)O[C@H](Cc1ccc(O)c(O)c1)C(=O)O [Rosmarinic acid]
Log P [1, 2]: 2.4 | Log P ([1]; compounds of T33 extract): 2.4

O=c1ccc2ccc(O)cc2o1 [Umbelliferone]
Papp at 4 h (in vitro; PAMPA, pH 7.4): 380 nm/s | Cross BBB potential (in vitro; compound within RSFE extract): +++ (log Pe > −4.5)

O=c1c(O)c(-c2cc(O)c(O)c(O)c2)oc2cc(O)cc(O)c12 [Myricetin]
Cross BBB potential (in vitro; PAMPA): -

O=C(/C=C/c1ccc(O)c(O)c1)O[C@@H]1C[C@](O)(C(=O)O)C[C@@H](O)[C@H]1O [Caffeoylquinic acid (chlorogenic acid), Caffeoylquinic acid]
Papp at 4 h (in vitro; [6]): 102 nm/s

O=c1oc2c(O)c(O)cc3c(=O)oc4c(O)c(O)cc1c4c23 [Ellagic acid]
Cross BBB potential (in vitro; PAMPA): -

O=c1c(O[C@@H]2O[C@H](CO)[C@@H](O)[C@H](O)[C@H]2O)c(-c2ccc(O)c(O)c2)oc2cc(O)cc(O)c12 [Isoquercitrin]
Cross BBB potential (in vitro; PAMPA): -

COc1ccc(-c2cc(=O)c3c(O)cc(O)cc3o2)cc1O [Diosmetin]
Cross BBB potential (in vitro; PAMPA): ++ (key: -: not detected in acceptor; +: log Pe > −6.5; ++: log Pe > −5.5; +++: log Pe > −4.5) | Papp (in vitro; [6]): 316 nm/s

O=c1cc(-c2ccc(O)c(O)c2)oc2cc(O)cc(O)c12 [Luteolin]
Papp at 4 h (in vitro; [6]): 380 nm/s

COc1cc(O)c2c(=O)cc(-c3ccc(O)cc3)oc2c1 [Genkwanin]
Papp at 4 h (in vitro; [6]): 95.5 nm/s

COc1cc(/C=C/C(=O)O)ccc1O [Ferulic acid]
Cross BBB potential (in vitro; PAMPA): ++ (key: -: not detected in acceptor; +: log Pe > −6.5; ++: log Pe > −5.5; +++: log Pe > −4.5) | PAMPA-BBB log Pe (cm s−1) (in vitro; PAMPA, pH 7.4): −4.68 cm s−1 | Cross BBB potential (in vitro; compound within ASFE extract): -

CC(C)c1cc2c(c(O)c1O)[C@@]1(C(=O)O)CCCC(C)(C)[C@@H]1CC2 [Carnosic acid]
Cross BBB potential (in vitro; PAMPA): ++ (key: -: not detected in acceptor; +: log Pe > −6.5; ++: log Pe > −5.5; +++: log Pe > −4.5) | Papp (in vitro; [6]): 135 nm/s

C[C@@H]1O[C@@H](OC[C@H]2O[C@@H](Oc3c(-c4ccc(O)c(O)c4)oc4cc(O)cc(O)c4c3=O)[C@H](O)[C@@H](O)[C@@H]2O)[C@H](O)[C@H](O)[C@H]1O [Rutin]
Cross BBB potential (in vitro; PAMPA): -

O=C1C[C@@H](c2ccc(O)c(O)c2)Oc2cc(O)cc(O)c21 [Eriodictyol]
Log P [1, 2]: 2.0

COc1cc2ccc(=O)oc2cc1O [Scopoletin]
Papp at 4 h (in vitro; [6]): 759 nm/s | Papp at 4 h (in vitro; [7]): 282 nm/s

CCOC(=O)/C=C/c1ccc(O)c(O)c1 [Ethyl caffeate]
Papp at 4 h (in vitro; [3]): 186 nm/s | Cross BBB potential (in vitro; compound within T33 extract): ++ (log Pe > −5.5)

COc1cc(C(=O)O)ccc1O[C@@H]1O[C@H](CO)[C@@H](O)[C@H](O)[C@H]1O [Vanillic acid-O-hexoside]
Cross BBB potential (in vitro; compound within RSFE extract): +++ (log Pe > −4.5) | PAMPA-BBB log Pe (cm s−1) (in vitro; [5]): −4.19 cm s−1

C[C@H]1[C@H](C)CC[C@]2(C(=O)O)CC[C@]3(C)C(=CC[C@@H]4[C@@]5(C)C[C@@H](O)[C@H](O)[C@@](C)(CO)[C@@H]5CC[C@]43C)[C@H]12 [Asiatic acid]
Cross BBB potential (in vitro; PAMPA): +++ | Papp at 4 h (in vitro; [6]): 646 nm/s
